Laboratory results as given in PMC5218480 (PLoS ONE, 2017).

Tested on: MV-4-11 cells
Experiment: Gene expression microarray analysis (Affymetrix PrimeView) and GSEA
Type: cell-based, human
Parameters: RFU PODN (11730768_x_at) / Fold change /veh PODN (11730768_x_at) / RFU LINC00158 (11744669_a_at) / Fold change /veh LINC00158 (11744669_a_at) / RFU DUSP10 (11751237_a_at) / Fold change /veh DUSP10 (11751237_a_at) / RFU ID3 (11757404_x_at) / Fold change /veh ID3 (11757404_x_at) / RFU PLEKHG5 (11737974_s_at) / Fold change /veh PLEKHG5 (11737974_s_at) / RFU LRRC4B (11730491_at) / Fold change /veh LRRC4B (11730491_at) / RFU GIMAP4 (11747438_a_at) / Fold change /veh GIMAP4 (11747438_a_at) / RFU KRT8 (11758183_x_at) / Fold change /veh KRT8 (11758183_x_at) / RFU CNN1 (11734310_a_at) / Fold change /veh CNN1 (11734310_a_at) / RFU VPS37D (11726825_at) / Fold change /veh VPS37D (11726825_at) / RFU C10orf10 (11716522_x_at) / Fold change /veh C10orf10 (11716522_x_at) / RFU KIR2DL2 /// KIR2DL4 /// KIR2DL5A /// KIR2DL5B /// KIR2DS1 /// KIR2DS2 /// KIR2DS3 /// KIR2DS4 /// KIR3DL3 /// KIR3DL3 /// KIR3DS1 (11738374_at) / Fold change /veh KIR2DL2 /// KIR2DL4 /// KIR2DL5A /// KIR2DL5B /// KIR2DS1 /// KIR2DS2 /// KIR2DS3 /// KIR2DS4 /// KIR3DL3 /// KIR3DL3 /// KIR3DS1 (11738374_at) / RFU C1QL1 (11718748_at) / Fold change /veh C1QL1 (11718748_at) / RFU TMPRSS4 (11747572_a_at) / Fold change /veh TMPRSS4 (11747572_a_at) / RFU HAMP (11756126_x_at) / Fold change /veh HAMP (11756126_x_at) / RFU RNFT2 (11725882_a_at) / Fold change /veh RNFT2 (11725882_a_at) / RFU NR4A2 (11747474_a_at) / Fold change /veh NR4A2 (11747474_a_at) / RFU ABCC12 (11746883_a_at) / Fold change /veh ABCC12 (11746883_a_at) / RFU TMEM136 (11760407_x_at) / Fold change /veh TMEM136 (11760407_x_at) / RFU CLDN22 /// WWC2 (11732394_at) / Fold change /veh CLDN22 /// WWC2 (11732394_at) / RFU HLA-DPB1 (11760878_x_at) / Fold change /veh HLA-DPB1 (11760878_x_at) / RFU SPINT1 (11716480_a_at) / Fold change /veh SPINT1 (11716480_a_at) / RFU GAP43 (11754022_s_at) / Fold change /veh GAP43 (11754022_s_at) / RFU A4GNT (11735810_at) / Fold change /veh A4GNT (11735810_at) / RFU PRB3 (11715151_x_at) / Fold change /veh PRB3 (11715151_x_at) / RFU TUBB4B (11761932_at) / Fold change /veh TUBB4B (11761932_at) / RFU CAPN14 (11732068_a_at) / Fold change /veh CAPN14 (11732068_a_at) / RFU TMCC2 (11721928_a_at) / Fold change /veh TMCC2 (11721928_a_at) / RFU IRGQ (11745062_a_at) / Fold change /veh IRGQ (11745062_a_at) / RFU FAM174B (11720279_a_at) / Fold change /veh FAM174B (11720279_a_at) / RFU TMPRSS4 (11748680_a_at) / Fold change /veh TMPRSS4 (11748680_a_at) / RFU FAM212B (11763350_a_at) / Fold change /veh FAM212B (11763350_a_at) / RFU PLEKHG5 (11743358_a_at) / Fold change /veh PLEKHG5 (11743358_a_at) / RFU ZSCAN30 (11745921_a_at) / Fold change /veh ZSCAN30 (11745921_a_at) / RFU CMKLR1 (11741424_a_at) / Fold change /veh CMKLR1 (11741424_a_at) / RFU LOC101060620 /// MAPK8IP1 (11723275_at) / Fold change /veh LOC101060620 /// MAPK8IP1 (11723275_at) / RFU SPTSSB (11747773_x_at) / Fold change /veh SPTSSB (11747773_x_at) / RFU PRSS12 (11739890_at) / Fold change /veh PRSS12 (11739890_at) / RFU BIN1 (11741810_x_at) / Fold change /veh BIN1 (11741810_x_at) / RFU WNT11 (11732464_a_at) / Fold change /veh WNT11 (11732464_a_at) / RFU C10orf10 (11716521_a_at) / Fold change /veh C10orf10 (11716521_a_at) / RFU C5orf56 (11738089_at) / Fold change /veh C5orf56 (11738089_at) / RFU CYB561 (11721691_x_at) / Fold change /veh CYB561 (11721691_x_at) / RFU ANKRD19P (11752326_a_at) / Fold change /veh ANKRD19P (11752326_a_at) / RFU OR2T12 /// OR2T33 /// OR2T8 (11738714_s_at) / Fold change /veh OR2T12 /// OR2T33 /// OR2T8 (11738714_s_at) / RFU VCAN (11748164_a_at) / Fold change /veh VCAN (11748164_a_at) / RFU JSRP1 (11732532_at) / Fold change /veh JSRP1 (11732532_at) / RFU KRTAP10-11 (11738290_x_at) / Fold change /veh KRTAP10-11 (11738290_x_at) / RFU MYO3A (11730013_a_at) / Fold change /veh MYO3A (11730013_a_at) / RFU EBF3 (11725865_a_at) / Fold change /veh EBF3 (11725865_a_at) / RFU CAMK2N1 (11719241_x_at) / Fold change /veh CAMK2N1 (11719241_x_at) / RFU C5orf56 (11738088_a_at) / Fold change /veh C5orf56 (11738088_a_at) / RFU OLFML3 (11715873_a_at) / Fold change /veh OLFML3 (11715873_a_at) / RFU LOC100653217 /// NTM (11731650_a_at) / Fold change /veh LOC100653217 /// NTM (11731650_a_at) / RFU MAPK11 (11762145_a_at) / Fold change /veh MAPK11 (11762145_a_at) / RFU FIZ1 (11724087_x_at) / Fold change /veh FIZ1 (11724087_x_at) / RFU OASL (11726364_x_at) / Fold change /veh OASL (11726364_x_at) / RFU SOX15 (11748057_x_at) / Fold change /veh SOX15 (11748057_x_at) / RFU CD79A (11719716_a_at) / Fold change /veh CD79A (11719716_a_at) / RFU HIST1H1D (11736915_at) / Fold change /veh HIST1H1D (11736915_at) / RFU CASKIN2 (11723855_a_at) / Fold change /veh CASKIN2 (11723855_a_at) / RFU LOC730098 (11760151_x_at) / Fold change /veh LOC730098 (11760151_x_at) / RFU OR4N2 (11742367_at) / Fold change /veh OR4N2 (11742367_at) / RFU PRRT2 (11749266_a_at) / Fold change /veh PRRT2 (11749266_a_at) / RFU SNX32 (11753110_a_at) / Fold change /veh SNX32 (11753110_a_at) / RFU CDHR5 (11726645_a_at) / Fold change /veh CDHR5 (11726645_a_at) / RFU RCAN1 (11760418_a_at) / Fold change /veh RCAN1 (11760418_a_at) / RFU FAM167A (11723789_a_at) / Fold change /veh FAM167A (11723789_a_at) / RFU FAM26E (11764081_at) / Fold change /veh FAM26E (11764081_at) / RFU ISYNA1 (11749810_s_at) / Fold change /veh ISYNA1 (11749810_s_at) / RFU ACY1 (11761880_at) / Fold change /veh ACY1 (11761880_at) / RFU 11764098_at / Fold change /veh 11764098_at / RFU SAMD14 (11745864_x_at) / Fold change /veh SAMD14 (11745864_x_at) / RFU NPB (11741838_a_at) / Fold change /veh NPB (11741838_a_at) / RFU TMPRSS6 (11731388_a_at) / Fold change /veh TMPRSS6 (11731388_a_at) / RFU KRTAP10-2 (11738614_at) / Fold change /veh KRTAP10-2 (11738614_at) / RFU ARHGAP8 /// PRR5-ARHGAP8 (11727945_x_at) / Fold change /veh ARHGAP8 /// PRR5-ARHGAP8 (11727945_x_at) / RFU KRTAP5-7 /// NADSYN1 (11734609_at) / Fold change /veh KRTAP5-7 /// NADSYN1 (11734609_at) / RFU RASL12 (11751679_a_at) / Fold change /veh RASL12 (11751679_a_at) / RFU CDKN2B (11736163_a_at) / Fold change /veh CDKN2B (11736163_a_at) / RFU PRF1 (11729649_at) / Fold change /veh PRF1 (11729649_at) / RFU, ZNF638 /// ZNF638-IT1 / Fold change vs veh, ZNF638 /// ZNF638-IT1 / RFU, PANK3 / Fold change vs veh, PANK3 / RFU, SH3YL1 / Fold change vs veh, SH3YL1 / RFU, ZEB2 / Fold change vs veh, ZEB2 / RFU, NRIP1 / Fold change vs veh, NRIP1 / RFU, PTTG1IP / Fold change vs veh, PTTG1IP / RFU, CAPN2 / Fold change vs veh, CAPN2 / RFU, MED14 / Fold change vs veh, MED14 / RFU, SNORA58 / Fold change vs veh, SNORA58 / RFU, C1orf63 / Fold change vs veh, C1orf63 / RFU, LRRFIP1 / Fold change vs veh, LRRFIP1 / RFU, NDUFAF7 / Fold change vs veh, NDUFAF7 / RFU, SLC12A2 / Fold change vs veh, SLC12A2 / RFU, IBTK / Fold change vs veh, IBTK / RFU, ESF1 / Fold change vs veh, ESF1 / Fold change vs veh, TMEM50B / RFU, TAOK1 / Fold change vs veh, TAOK1 / RFU, ACBD3 / Fold change vs veh, ACBD3 / RFU, TMA16 / Fold change vs veh, TMA16 / RFU, RWDD3 / Fold change vs veh, RWDD3 / RFU, BCAT1 / Fold change vs veh, BCAT1 / RFU, EDEM3 / Fold change vs veh, EDEM3 / RFU, TMEM33 / Fold change vs veh, TMEM33 / RFU, WDR75 / Fold change vs veh, WDR75 / RFU, AHCTF1 / Fold change vs veh, AHCTF1 / RFU, TFRC / Fold change vs veh, TFRC / RFU, ZDHHC17 / Fold change vs veh, ZDHHC17 / RFU, NOM1 / Fold change vs veh, NOM1 / RFU, ARL8B / Fold change vs veh, ARL8B / RFU, ZBTB11 / Fold change vs veh, ZBTB11 / RFU, TAMM41 / Fold change vs veh, TAMM41 / RFU, KIAA1704 /// LOC100996395 / Fold change vs veh, KIAA1704 /// LOC100996395 / RFU, ING1 / Fold change vs veh, ING1 / RFU, TRMT61B / Fold change vs veh, TRMT61B / RFU, FUBP3 / Fold change vs veh, FUBP3 / RFU, TP53 / Fold change vs veh, TP53 / RFU, TNKS2 / Fold change vs veh, TNKS2 / RFU, ZFP14 / Fold change vs veh, ZFP14 / RFU, ACTR2 / Fold change vs veh, ACTR2 / RFU, PPP3R1 / Fold change vs veh, PPP3R1 / RFU, PIK3R1 / Fold change vs veh, PIK3R1 / RFU, HNRNPA1 / Fold change vs veh, HNRNPA1 / RFU, RNF170 / Fold change vs veh, RNF170 / RFU, ZNF28 / Fold change vs veh, ZNF28 / RFU, RNGTT / Fold change vs veh, RNGTT / RFU, OGT / Fold change vs veh, OGT / RFU, BRD1 / Fold change vs veh, BRD1 / RFU, MARS / Fold change vs veh, MARS / RFU, ZNF655 / Fold change vs veh, ZNF655 / RFU, FAHD1 / Fold change vs veh, FAHD1 / RFU, BDP1 / Fold change vs veh, BDP1 / RFU, LRRCC1 / Fold change vs veh, LRRCC1 / RFU, ARID1A / Fold change vs veh, ARID1A / RFU, ZNF146 / Fold change vs veh, ZNF146 / RFU, ZNF330 / Fold change vs veh, ZNF330 / RFU, GPN3 / Fold change vs veh, GPN3 / RFU, C9orf123 / Fold change vs veh, C9orf123 / RFU, N4BP2L2 / Fold change vs veh, N4BP2L2 / RFU, ARFIP1 / Fold change vs veh, ARFIP1 / RFU, FAM179B / Fold change vs veh, FAM179B / RFU, BCL10 / Fold change vs veh, BCL10 / RFU, UHRF1BP1L / Fold change vs veh, UHRF1BP1L / RFU, BET1 / Fold change vs veh, BET1 / RFU, CNOT2 / Fold change vs veh, CNOT2 / RFU, ZNF268 / Fold change vs veh, ZNF268 / Fold change vs veh, ZNF507 / RFU, DGCR2 / Fold change vs veh, DGCR2 / RFU, WDSUB1 / Fold change vs veh, WDSUB1 / Fold change vs veh, HSP90B1 /// MIR3652 / RFU, ADSS / Fold change vs veh, ADSS / RFU, GK / Fold change vs veh, GK / RFU, ZNF148 / Fold change vs veh, ZNF148 / RFU, TAF9 / Fold change vs veh, TAF9 / RFU, SLC1A5 / Fold change vs veh, SLC1A5 / RFU, SLMO2 / Fold change vs veh, SLMO2 / RFU, ABCC4 / Fold change vs veh, ABCC4 / RFU, LOC101060439 /// RAP1B / Fold change vs veh, LOC101060439 /// RAP1B / RFU, RFX7 / Fold change vs veh, RFX7 / RFU, GTPBP10 / Fold change vs veh, GTPBP10 / RFU, CNEP1R1 / Fold change vs veh, CNEP1R1 / RFU, BIVM-ERCC5 /// ERCC5 / Fold change vs veh, BIVM-ERCC5 /// ERCC5 / RFU, ILF3 / Fold change vs veh, ILF3 / RFU 11762660_at / Fold change /veh 11762660_at / RFU VCAN (11757783_s_at) / Fold change /veh VCAN (11757783_s_at) / RFU DDX43 (11728927_at) / Fold change /veh DDX43 (11728927_at) / RFU KRT8 (11758188_x_at) / Fold change /veh KRT8 (11758188_x_at) / RFU NKD1 (11759106_at) / Fold change /veh NKD1 (11759106_at) / RFU SRD5A1 (11742802_a_at) / Fold change /veh SRD5A1 (11742802_a_at) / RFU TPSAB1 /// TPSB2 (11721975_s_at) / Fold change /veh TPSAB1 /// TPSB2 (11721975_s_at) / RFU GSTM3 (11746129_a_at) / Fold change /veh GSTM3 (11746129_a_at) / RFU IL23R (11737362_x_at) / Fold change /veh IL23R (11737362_x_at) / RFU TMEM51 (11727254_a_at) / Fold change /veh TMEM51 (11727254_a_at) / RFU PIWIL2 (11732686_x_at) / Fold change /veh PIWIL2 (11732686_x_at) / RFU ORM1 (11744905_x_at) / Fold change /veh ORM1 (11744905_x_at) / RFU CCDC152 (11743942_at) / Fold change /veh CCDC152 (11743942_at) / RFU ECM1 (11717891_a_at) / Fold change /veh ECM1 (11717891_a_at) / RFU IL23R (11748794_a_at) / Fold change /veh IL23R (11748794_a_at) / RFU TNFAIP8L3 (11732012_x_at) / Fold change /veh TNFAIP8L3 (11732012_x_at) / RFU MBOAT4 (11741988_at) / Fold change /veh MBOAT4 (11741988_at) / RFU 11764193_at / Fold change /veh 11764193_at / RFU TMEM53 (11763286_at) / Fold change /veh TMEM53 (11763286_at) / RFU MAGEB2 (11727129_at) / Fold change /veh MAGEB2 (11727129_at) / RFU TMEM200A (11744735_a_at) / Fold change /veh TMEM200A (11744735_a_at) / RFU CCDC152 (11751479_a_at) / Fold change /veh CCDC152 (11751479_a_at) / RFU FAM211A (11726209_a_at) / Fold change /veh FAM211A (11726209_a_at) / RFU RGS16 (11746705_a_at) / Fold change /veh RGS16 (11746705_a_at) / RFU VCAN (11755009_s_at) / Fold change /veh VCAN (11755009_s_at) / RFU RHOB (11743442_s_at) / Fold change /veh RHOB (11743442_s_at) / RFU RGS16 (11720943_a_at) / Fold change /veh RGS16 (11720943_a_at) / RFU RGS16 (11720944_at) / Fold change /veh RGS16 (11720944_at) / RFU, VPS4B / Fold change vs veh, VPS4B / RFU, CREB1 / Fold change vs veh, CREB1 / RFU, DNAJC13 / Fold change vs veh, DNAJC13 / RFU, GNAQ / Fold change vs veh, GNAQ / RFU, CDK5R1 / Fold change vs veh, CDK5R1 / RFU, ZRANB3 / Fold change vs veh, ZRANB3 / RFU, CUL4A / Fold change vs veh, CUL4A / RFU, CCNY / Fold change vs veh, CCNY / RFU, UFL1 / Fold change vs veh, UFL1 / RFU, COG3 / Fold change vs veh, COG3 / RFU, DIAPH2 / Fold change vs veh, DIAPH2 / RFU, SKA2 / Fold change vs veh, SKA2 / RFU, AFF3 / Fold change vs veh, AFF3 / RFU, LMF1 / Fold change vs veh, LMF1 / RFU, IPO11 / Fold change vs veh, IPO11 / RFU, DFFB / Fold change vs veh, DFFB / RFU, FOXP1 / Fold change vs veh, FOXP1 / RFU, CARD8 / Fold change vs veh, CARD8 / RFU, STRN3 / Fold change vs veh, STRN3 / RFU, ADK / Fold change vs veh, ADK / RFU, RASSF2 / Fold change vs veh, RASSF2 / RFU, WIPF1 / Fold change vs veh, WIPF1 / RFU, LARP1B / Fold change vs veh, LARP1B / RFU, RASA1 / Fold change vs veh, RASA1 / RFU, RB1 / Fold change vs veh, RB1 / RFU, PPFIA1 / Fold change vs veh, PPFIA1 / RFU, MAT2A / Fold change vs veh, MAT2A / RFU, CCT5 / Fold change vs veh, CCT5 / RFU, WDR92 / Fold change vs veh, WDR92 / RFU, CUX1 / Fold change vs veh, CUX1 / RFU, TTC7A / Fold change vs veh, TTC7A / RFU, TMEM135 / Fold change vs veh, TMEM135 / RFU, DEPTOR / Fold change vs veh, DEPTOR / RFU, CPM / Fold change vs veh, CPM / RFU, DNAJB6 / Fold change vs veh, DNAJB6 / RFU, CACNA2D3 / Fold change vs veh, CACNA2D3 / RFU, DTX4 / Fold change vs veh, DTX4 / RFU, TFCP2 / Fold change vs veh, TFCP2 / RFU, GMCL1 /// GMCL1P1 / Fold change vs veh, GMCL1 /// GMCL1P1 / RFU, AEBP2 / Fold change vs veh, AEBP2 / RFU, SNHG1 /// SNORD22 /// SNORD25 /// SNORD26 /// SNORD27 /// SNORD28 /// SNORD29 /// SNORD31 / Fold change vs veh, SNHG1 /// SNORD22 /// SNORD25 /// SNORD26 /// SNORD27 /// SNORD28 /// SNORD29 /// SNORD31 / Fold change (Aza/veh), C12orf56 (ProbeSet 11735607_a_at) / Fold change (ACY-1035/veh), C12orf56 (ProbeSet 11735607_a_at) / Fold change (Aza/veh), FGFR1OP (ProbeSet 11751329_s_at) / Fold change (ACY-1035/veh), FGFR1OP (ProbeSet 11751329_s_at) / Fold change (Aza/veh), VPS36 (ProbeSet 11739960_a_at) / Fold change (ACY-1035/veh), VPS36 (ProbeSet 11739960_a_at) / RFU SYPL1 (11715823_x_at) / Fold change /veh SYPL1 (11715823_x_at) / RFU IGFBP7 (11715501_s_at) / Fold change /veh IGFBP7 (11715501_s_at) / RFU REEP3 (11722064_at) / Fold change /veh REEP3 (11722064_at) / RFU IGLL1 (11728026_x_at) / Fold change /veh IGLL1 (11728026_x_at): dose or concentration left out as unconfirmed
Settings: ProbeSet 11721521_at; LIST B

SMILES: Nc1ncn([C@@H]2O[C@H](CO)[C@@H](O)[C@H]2O)c(=O)n1 [azacitidine]
- Fold change vs veh, ZDHHC17: 0.88
